In US8450053B2, “ZAP-70 as predictor and modulator of effector function of T cells” (University of Maryland, Baltimore, priority 2007, dated 2013):
“Also recorded” adds a separate entry of the source.

Tests used:
Type in all cases: cell-based, mouse
[1] = system: memory CD4 T cells; test: Inhibitor assay: OVA-specific memory CD4 T cells stimulated with OVA/APC, flow cytometry and intracellular cytokine staining
Experimental: (§1) Intracellular cytokine staining (ICS) analysis of signaling intermediates and cytokines was performed as previously described (Bingaman et al., 2005, supra; Ahmadzadeh and Farber, 2002, supra). Briefly, naive or memory CD4 T cells were cultured with APC and 800 ng/ml OVA peptide for time points of 0-48 hrs, and monensin (Golgistop™, BD Pharmingen) was added 6 hrs prior to harvesting. Cells were stained with antibodies for surface markers CD4, CD25, CD44, KJ1-26, fixed (Cytofix™ buffer, BD Pharmingen), permeabilized, and stained intracellularly with fluorochrome-conjugated antibodies to cytokines, signaling intermediates, and analyzed by flow cytometry.
(§2) Six-color flow cytometry was performed on BD LSR II flow cytometer (BD Biosciences) using FITC, PE, PERCP and PE-Cy7, allophycocyanin-Cy7, and allophycocyanin as fluorochromes (BD Biosciences, e-biosciences, Invitrogen/caltag). CD4 T cells stained with single color fluorochromes were used for compensation, background values were established with isotype controls, and data were analyzed using BD FACSDiva™ software (BD Biosciences). Fluorochrome-conjugated antibodies directed against CD4 (clone GK1.5), CD25 (PC61), CD69 (H1.2F3), CD62L (MEL-14), CD44 (IM7), CD3ε (145-2C11), IFN-γ (XMG1.2), phospho-ZAP-70 (17-P), phospho-PLC-γ (27/PLC), and phospho-Stat1 (clone 4a) were all purchased from BD-Pharmingen (San Diego, Calif.). PE- and APC-conjugated KJ1-26 specific for the DO11.10 TCR clonotype were purchased from CALTAG Laboratories (Burlingame, Calif.). PE- and FITC-conjugated ZAP-70 (1E7.2) was obtained from Invitrogen (Carlsbad, Calif.), and FITC-conjugated phospho-tyrosine (PT-66) from Sigma (St. Louis, Mo.), and phospho-p38 (28B10) and phospho-erk1/2 (E10) were purchased from Cell signaling technology, Inc. (Danvers, Mass.). For most analyses, a given marker was analyzed using several different fluorochromes to eliminate errors based on compensation.
(§3) Naive or memory CD4 T cells (1×10^6) were cultured with APC (3×10^6) in total volume of 1 ml of Clicks medium containing 800 ng/ml OVA peptide for time points of 0-24 hrs along with inhibitors cycloheximide (Sigma, 50 μg/ml) or piceatannol (Calbiochem, 12 μM of 3,4,3′,5′-tetrahydroxy-trans-stilbene). Solvent alone served as a vehicle control.

[2] = system: naive CD4 T cells; test: Inhibitor assay: OVA-specific naive CD4 T cells stimulated with OVA/APC, flow cytometry; details: cycloheximide 50 μg/ml
Experimental: as §1, §2, §3

[3] = system: naive and memory CD4 T cells; test: Viability of naive and memory CD4 T cells cultured with cycloheximide; details: after 24 hrs in cycloheximide, average
Experimental: as §3

[4] = system: ZAP-70; test: siRNA-mediated knockdown of ZAP-70 in OVA-specific memory CD4 T cells
Experimental: Cy3-labeled ZAP-70 specific siRNA Sense (5′→3′)/Cy3/GGCGGAUGGACUAAUUUACtt (SEQ ID NO: 10); Antisense (5′→3′) GUAAAUUAGUCCAUCCGCCtt (SEQ ID NO:11) or control GAPDH siRNA obtained from Ambion (Austin, Tex.) was delivered at a final concentration of 5 μM into 1.0×10^6 purified resting memory OVA-specific CD4 T cells using the mouse T cell nucleofector kit (Amaxa Inc., Gaithersburg, Md.) according to the manufacturers instructions and similar to the approach previously employed for siRNA transfections in mouse T cells (Sabbagh et al., 2006, Proc. Natl. Acad. Sci. USA 103:18703-18708). Following nucleofection, cell suspensions were cultured in media in 24 well plates with APC (2×10^6/well) and OVA-peptide (800 ng/ml), followed by incubation at 37° C. for 18 hrs. After 18 hrs, Golgistop (BD Pharmingen, USA) (0.66 μl/ml of culture) was added, cells were incubated for an additional 6 hrs, and subsequently staining for surface expression of CD4, KJ1-26 and CD25, and intracellular expression of ZAP-70 and IFN-γ as above.

[5] = antigen-stimulated memory CD4 T cells, 24 hrs, cycloheximide 50 μg/ml
[6] = memory CD4 T cells, +/-antigen, 6 hrs, cycloheximide 50 μg/ml
[7] = naive CD4 T cells, +/-antigen, 6 hrs
[8] = naive T cells, antigenic stimulation 24 hrs
[9] = memory CD4 T cells, OVA/APC 6 hrs, piceatannol 12 μM

C[C@@H]1C[C@@H]([C@H](O)CC2CC(=O)NC(=O)C2)C(=O)[C@@H](C)C1 [cycloheximide]
CD25 up-regulation [1, 5]: inhibited
memory CD4 T cells maintaining high level of ZAP-70 expression [1, 5]: > 50%
intracellular tyrosine phosphorylation [1, 6]: did not affect
resting state level of ZAP-70 [1, 6]: did not affect
p-Tyr levels ([1]; memory T cells, 24 hrs, cycloheximide 50 μg/ml): did not affect
increases in total intracellular p-Tyr levels ([2]; activated naive CD4 T cells, 24 hrs): significantly inhibited
intracellular tyrosine phosphorylation [2, 7]: did not affect
resting state level of ZAP-70 [2, 7]: did not affect
up-regulation of CD25 expression [2, 8]: completely inhibited
up-regulation of ZAP-70 expression [2, 8]: completely inhibited
Viability [3]: 70%

Oc1cc(O)cc(/C=C/c2ccc(O)c(O)c2)c1 [piceatannol, 3,4,3′,5′-tetrahydroxy-trans-stilbene]
ZAP-70 expression, dose response ([1]; antigen-stimulated memory CD4 T cells, +/-OVA/APC, six hrs): reduced ZAP-70 expression in a dose-dependent fashion
ZAP-70 expression [1, 9]: specifically reduced
basal level of CD25 [1, 9]: without affecting
rapid IFN-γ production [1, 9]: striking inhibition; also recorded: completely blocked
total p-Tyr content [1, 9]: without affecting

ZAP-70 specific siRNA: Cy3-labeled ZAP-70 specific siRNA, sense GGCGGAUGGACUAAUUUACtt (SEQ ID NO: 10), antisense GUAAAUUAGUCCAUCCGCCtt (SEQ ID NO:11) (sense GGCGGAUGGACUAAUUUACTT; antisense GUAAAUUAGUCCAUCCGCCTT; Cy3 label, further chemistry not given here)
early IFN-γ production ([4]; memory CD4 T cells, ZAP-70 downmodulated using siRNA): inhibited
reduction in the proportion of memory T cells producing IFN-γ ([4]; siRNA 5 μM, OVA/APC 24 hrs, vs siRNA- and GAPDH siRNA transfectants): 50%
ZAP-70 expression (MFI) ([4]; silenced (siRNA+) vs unsilenced (siRNA-) memory CD4 T cells, siRNA 5 μM, OVA/APC 24 hrs): reduction in ZAP-70 expression
